Experimental data as given in patent US8952024B2, “Herbicidal pyrimidone derivatives” (E I du Pont de Nemours and Company, priority 2009, dated 2015).

Key:
Test in all cases: Test B pre-/postemergence plant response
Format in all cases: in vivo
corn (Zea mays) = details: for Corn plant response rating (0 to 100 scale): 62 g ai/ha, 0 is no effect, 13 to 15 days
How it was run: (§1)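 Test compounds, formulated in a non-phytotoxic solvent mixture with surfactant, are applied to the soil surface (loam and sand blend) right after seeding, or sprayed over plants at the 1- to 4-leaf stage grown in peat moss/vermiculite medium. After 13 to 15 days under glasshouse conditions, each species is scored visually from 0 (no effect) to 100 (complete control) against controls.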

[1] = tested on: pigweed (Amaranthus retroflexus); details: for Pigweed plant response rating (0 to 100 scale): 62 g ai/ha, 0 is no effect, 13 to 15 days
How it was run: as §1

[2] = tested on: woolly cupgrass (Eriochloa villosa); details: for Cupgrass, Woolly plant response rating (0 to 100 scale): 62 g ai/ha, 0 is no effect, 13 to 15 days
How it was run: as §1

[3] = tested on: lambsquarters (Chenopodium album); details: for Lambsquarters plant response rating (0 to 100 scale): 62 g ai/ha, 0 is no effect, 13 to 15 days
How it was run: as §1

[4] = tested on: large crabgrass (Digitaria sanguinalis); details: for Crabgrass, Large plant response rating (0 to 100 scale): 62 g ai/ha, 0 is no effect, 13 to 15 days
How it was run: as §1

[5] = tested on: Italian ryegrass (Lolium multiflorum); details: for Ryegrass, Italian plant response rating (0 to 100 scale): 62 g ai/ha, 0 is no effect, 13 to 15 days
How it was run: as §1

[6] = tested on: Surinam grass (Brachiaria decumbens); details: for Surinam Grass plant response rating (0 to 100 scale): 62 g ai/ha, 0 is no effect, 13 to 15 days
How it was run: as §1

[7] = tested on: goosegrass (Eleusine indica); details: for Goosegrass plant response rating (0 to 100 scale): 62 g ai/ha, 0 is no effect, 13 to 15 days
How it was run: as §1

[8] = 31 g ai/ha, postemergence, scale 0 to 100, 0 is no effect, 100 is complete control
[9] = postemergence, 100 is complete control
[10] = Postemergence, 125 g ai/ha, visual rating after 13 to 15 days, scale 0 (no effect) to 100 (complete control)
[11] = Postemergence, 250 g ai/ha, scale 0 to 100 (0 no effect, 100 complete control)

Structure (SMILES) | Plant response rating, Corn (corn (Zea mays); [8]) | Corn plant response rating (0 to 100 scale) (corn (Zea mays); [9]) | Plant response rating, Corn (corn (Zea mays); [10]) | Plant response rating, Corn (corn (Zea mays); [11]) | Plant response rating, Pigweed [1, 8] | Pigweed plant response rating (0 to 100 scale) [1, 9] | Plant response rating, Pigweed [1, 11] | Plant response rating, Cupgrass, Woolly [2, 8] | Cupgrass, Woolly plant response rating (0 to 100 scale) [2, 9] | Plant response rating, Cupgrass, Woolly [2, 10] | Plant response rating, Cupgrass, Woolly [2, 11] | Plant response rating, Lambsquarters [3, 8] | Lambsquarters plant response rating (0 to 100 scale) [3, 9] | Plant response rating, Lambsquarters [3, 11] | Plant response rating, Crabgrass, Large [4, 8] | Crabgrass, Large plant response rating (0 to 100 scale) [4, 9] | Plant response rating, Crabgrass, Large [4, 10] | Plant response rating, Crabgrass, Large [4, 11] | Plant response rating, Ryegrass, Italian [5, 8] | Ryegrass, Italian plant response rating (0 to 100 scale) [5, 9] | further results
CCCn1c(-c2ccsc2)ncc(C(=O)C2=C(O)CCCC2=O)c1=O [Compound 93] | 0 | 45 | 50 | 60 | 90 | 95 | 100 | 45 | 45 | 65 | 70 | 85 | 95 | 98 | 70 | 80 | 80 | 90 | 0 | 0 | Plant response rating, Ryegrass, Italian [5, 11]: 0; Plant response rating, Surinam Grass [6, 8]: 50; Surinam Grass plant response rating (0 to 100 scale) [6, 9]: 65; Plant response rating, Surinam Grass [6, 11]: 70; Plant response rating, Goosegrass [7, 8]: 60; Goosegrass plant response rating (0 to 100 scale) [7, 9]: 65; Plant response rating, Goosegrass [7, 11]: 75
O=C1CCCC(O)=C1C(=O)c1cnc(C2CCCC2)n(-c2ccccc2)c1=O [Compound 92] | 20 | 35 | 45 | 60 | 90 | 100 | 100 | 10 | 25 | 65 | 70 | 90 | 98 | 100 | 80 | 90 | 98 | 100 | 0 | 0 | Plant response rating, Ryegrass, Italian [5, 11]: 30; Plant response rating, Surinam Grass [6, 8]: 25; Surinam Grass plant response rating (0 to 100 scale) [6, 9]: 65; Plant response rating, Surinam Grass [6, 11]: 75; Plant response rating, Goosegrass [7, 8]: 60; Goosegrass plant response rating (0 to 100 scale) [7, 9]: 70; Plant response rating, Goosegrass [7, 11]: 90
